Measurements taken from patent US8420657B2 (Novartis AG, priority 2008, dated 2013).

Legend:
GST-JAK2(808-1132) = target: T1, GST-JAK2(808-1132) (Homo sapiens, UniProt O60674); assay: JAK2 kinase assay (Caliper mobility shift, LabChip 3000); type: biochemical
T1 construct: GST-JAK2(808-1132); purchased Invitrogen (Carlsbad, USA) #4288
Procedure, shortened: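 Recombinant GST-JAK2(808-1132) kinase domain with FITC-labelled JAK3tide peptide substrate and ATP; 60 min at 30 °C, EDTA stop. Substrate/product ratio read by microfluidic mobility shift; compounds at 8 final concentrations, 10 to 0.003 μM.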

[1] = tested on: JAK2-dependent nuclear translocation of STAT5-GFP in U-2 OS osteosarcoma cells; assay: STAT5 nuclear translocation assay (Cellomics), rhEpo stimulated U-2 OS STAT5-GFP cells; type: cell-based; settings: Homo sapiens, U2OS; STAT5 translocation pathway
Description: The medium-throughput (96-well format) cellular automated fluorescence microscopy Cellomics assay can be routinely used to assess the functional activation of Janus Kinases (JAKs), based on the nuclear translocation of their substrate, Signal Transducer and Activator of Transcription (STAT). Nuclear translocation can be monitored either in HT1080 fibrosarcoma cells stably transfected with STAT1 fused to Green Fluorescence Protein (GFP) or in U-2 OS osteosarcoma cells stably transfected with STAT5 fused to Green Fluorescence Protein (GFP). Stimulation of HT1080 cells with interferon-γ (IFN-γ) results in JAK1/JAK2-dependent nuclear translocation of STAT1-GFP, whereas stimulation of U-2 OS cells with recombinant human erythropoietin (rhEpo) results in JAK2-dependent nuclear translocation of STAT5-GFP, both of which can be quantified using the Cellomics Cyto/NucTrans software package. This assay may be used to provide an assessment of the nuclear-cytoplasmic differential (NCD) of STAT-GFP using Hoechst dye to define the boundaries of the nucleus.
U-2 OS osteosarcoma cells may be obtained from ATCC and can be cultured in standard RPMI medium supplemented with 10% FCS and 2 mM L-glutamine. Cells can be stably transfected with STAT5a-GFP using Lipofectamine following the manufacturers' protocol. 24 hours after transfection the medium can be replaced and selected in 400 μg/ml Geneticin. Subsequently, cells can be stably transfected with EpoR using Lipofectamine following the manufacturers' protocol. 24 hours after transfection the medium can be replaced and cells selected in 100 μg/ml Hygromycin B.
Compounds can be dissolved in DMSO to a final stock concentration of 10 mM and stored as aliquots at 4° C. Compounds may be pre-diluted in 100% DMSO at 10 mM, 3 mM 1 mM, 0.3 mM, 0.1 mM, 0.03 mM, 0.01 mM and 0.003 mM. Subsequently, compounds may be diluted in medium and added in 50 μl to the cells. The final compound concentrations tested may be 10 μM, 3 μM 1 μM, 0.3 μM, 0.1 μM, 0.03 μM, 0.01 μM and 0.003 μM and the final DMSO concentration can be 0.1%.
U-2 OS may be seeded at a cell density of 12,000 cells per well in clear-bottom black 96-well Packard View-Plates™. The following day, medium can be removed and replaced with medium containing either the vehicle (DMSO) or increasing concentrations of test compounds for 30 minutes at 37° C. Cells can then be stimulated for 1 hour by adding 10 μl per well of 50 U/ml rhEpo to obtain 5 U/ml of rhEpo as the final concentration. Following treatments, cells can fixed and processed as described above.
The plates can be read on a Cellomics® ArrayscanII automated fluorescence microscope plate reader equipped with a Mercury-Xenon white light illumination source and a Zeiss Axiovert inverted microscope, using the XF100 dichroic/emission filter cube and matching excitation filters, 10× magnification, and a 0.3 numerical aperture objective. Image acquisition and analysis can be performed using a customized protocol based on the ‘NuclearTranslocation’ Bioapplication. For each well, multiple images (fields) can be acquired until a minimum of 1000 cells are counted using two 2 channels: Channel 1 (Hoechst)=focus+nuclear mask, Channel 2 (GFP)=signal quantification in mask areas as outlined below. Nuclei may be first identified based on the Hoechst staining and a mask generated for each nucleus that then serves as a template to generate a circle (eroded inwards by 1 pixel) and a 3 pixel-wide collar-like ring (off-set outwards by 1 pixel), in which the nuclear and cytoplasmic intensity of GFP, respectively, are quantified in the corresponding channel. High content analysis yields numerous measurements per cell and the GFP intensity differential between the nuclear and the cytoplasmic masks may be chosen as a measure of sub-cellular STAT-GFP relocation. The resulting values may be averaged for all cells in the well to return a single measurement plus standard deviation. […]

T1 sequence (O60674 808-1132): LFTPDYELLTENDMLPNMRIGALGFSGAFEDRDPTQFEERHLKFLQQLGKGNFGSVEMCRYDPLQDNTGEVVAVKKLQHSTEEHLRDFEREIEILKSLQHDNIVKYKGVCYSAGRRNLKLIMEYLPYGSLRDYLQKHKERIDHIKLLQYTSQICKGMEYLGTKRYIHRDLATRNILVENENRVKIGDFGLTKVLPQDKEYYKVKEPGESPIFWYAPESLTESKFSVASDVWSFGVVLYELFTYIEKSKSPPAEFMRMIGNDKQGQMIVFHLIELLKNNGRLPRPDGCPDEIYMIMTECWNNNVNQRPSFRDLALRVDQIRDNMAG

| Compound | IC50 (GST-JAK2(808-1132)) | IC50 [1] |
| --- | --- | --- |
| Fc1cc(-n2ccc3cnc(Nc4ccc(CN5CCC(F)(F)C5)cc4)nc32)cc(F)c1CN1CCOCC1 [Example 471, [7-(3,5-Difluoro-4-morpholin-4-ylmethyl-phenyl)-7H-pyrrolo[2,3-d]pyrimidin-2-yl]-[4-(3,3-difluoro-pyrrolidin-1-ylmethyl)-phenyl]-amine] | 3.5 nM | 31.5 nM |
| C[C@@H]1CN(c2ccc(Nc3ncc4ccn(-c5ccc(S(=O)(=O)NC(C)(C)C)cc5)c4n3)cn2)C[C@H](C)N1 [Example 351, N-tert-Butyl-4-{2-[6-(cis-3,5-dimethyl-piperazin-1-yl)-pyridin-3-ylamino]-pyrrolo[2,3-d]pyrimidin-7-yl}-benzenesulfonamide] | 4.3 nM | 1.3 nM |
| CN1CCN(Cc2cc(Nc3ncc4ccn(-c5ccc(C(=O)N6CCS(=O)(=O)CC6)c(F)c5)c4n3)ccn2)CC1 [Example 406, (1,1-Dioxido-thiomorpholin-4-yl)-(2-fluoro-4-{2-[2-(4-methyl-piperazin-1-ylmethyl)-pyridin-4-ylamino]-pyrrolo[2,3-d]pyrimidin-7-yl}-phenyl)-methanone] | 4 nM | > 4000 nM |
| OC1CN(Cc2cc(Nc3ncc4ccn(-c5cc(F)c(CN6CCOCC6)c(F)c5)c4n3)ccc2Cl)C1 [Example 400, 1-{2-Chloro-5-[7-(3,5-difluoro-4-morpholin-4-ylmethyl-phenyl)-7H-pyrrolo[2,3-d]pyrimidin-2-ylamino]-benzyl}-azetidin-3-ol] | 7 nM | 1.7 nM |
| CN1CCN(C(=O)c2ccc(Nc3ncc4ccn(-c5cc(F)c(CN6CCOCC6)c(F)c5)c4n3)cn2)CC1 [Example 466, {5-[7-(3,5-Difluoro-4-morpholin-4-ylmethyl-phenyl)-7H-pyrrolo[2,3-d]pyrimidin-2-ylamino]-pyridin-2-yl}-(4-methyl-piperazin-1-yl)-methanone] | 7.9 nM | 56 nM |
| CN1CCN(c2ccc(Nc3ncc4ccn(-c5ccc6c(c5)CC(=O)N6C)c4n3)cn2)CC1 [Example 448, 1-Methyl-5-{2-[6-(4-methyl-piperazin-1-yl)-pyridin-3-ylamino]-pyrrolo[2,3-d]pyrimidin-7-yl}-1,3-dihydro-indol-2-one] | 5 nM | 7.4 nM |
| COC1CCN(Cc2ccc(Nc3ncc4ccn(-c5cc(F)c(CN6CCOCC6)c(F)c5)c4n3)cc2)C1 (racemic) [Example 506, [7-(3,5-Difluoro-4-morpholin-4-ylmethyl-phenyl)-7H-pyrrolo[2,3-d]pyrimidin-2-yl]-[4-(3-methoxy-pyrrolidin-1-ylmethyl)-phenyl]-amine] | ≤ 3 nM | 38 nM |
| Cc1ccc(Nc2ncc3ccn(-c4cc(F)c(CN5CCS(=O)(=O)CC5)c(F)c4)c3n2)cc1CN1CCNCC1 [Example 428, {7-[4-(1,1-Dioxido-thiomorpholin-4-ylmethyl)-3,5-difluoro-phenyl]-7H-pyrrolo[2,3-d]pyrimidin-2-yl}-(4-methyl-3-piperazin-1-ylmethyl-phenyl)-amine] | ≤ 3 nM | 10.7 nM |
| C[C@@H]1CN(Cc2c(F)cc(-n3ccc4cnc(Nc5ccc(N6CCNCC6)nc5)nc43)cc2F)C[C@H](C)O1 [Example 454, {7-[4-(cis-2,6-dimethyl-morpholin-4-ylmethyl)-3,5-difluoro-phenyl]-7H-pyrrolo[2,3-d]pyrimidin-2-yl}-(6-piperazin-1-yl-pyridin-3-yl)-amine] | 4.5 nM | 53.5 nM |
| C[C@@H]1CN(c2ccc(Nc3ncc4ccn(-c5cc(F)c(CN6CCOC7(COC7)C6)c(F)c5)c4n3)cn2)C[C@H](C)N1 [Example 360, [6-(cis-3,5-Dimethyl-piperazin-1-yl)-pyridin-3-yl]-{7-[4-(2,5-dioxa-8-aza-spiro[3,5]non-8-ylmethyl)-3,5-difluoro-phenyl]-7H-pyrrolo[2,3-d]pyrimidin-2-yl}-amine] | 3.3 nM | 7.2 nM |
| Fc1cc(-n2ccc3cnc(Nc4ccc5c(c4)C4CCC5N4)nc32)cc(F)c1CN1CCOCC1 (centres unmarked) [Example 424, [7-(3,5-Difluoro-4-morpholin-4-ylmethyl-phenyl)-7H-pyrrolo[2,3-d]pyrimidin-2-yl]-(1,2,3 4-tetrahydro-1,4-epiazano-naphthalen-6-yl)-amine] | ≤ 3 nM | 9 nM |
| O=C(c1cc(Nc2ncc3ccn(-c4cc(F)c(CN5CCOCC5)c(F)c4)c3n2)ccn1)N1CCNCC1 [Example 390, {4-[7-(3,5-Difluoro-4-morpholin-4-ylmethyl-phenyl)-7H-pyrrolo[2,3-d]pyrimidin-2-ylamino]-pyridin-2-yl}-piperazin-1-yl-methanone] | 15 nM | 104 nM |

Results, then the molecule that gave them:

| IC50 (GST-JAK2(808-1132)) | IC50 [1] | Compound |
| --- | --- | --- |
| 13 nM | 52 nM | Cc1ccc(Nc2ncc3ccn(-c4cc(F)c(CN5CCOCC5)c(F)c4)c3n2)cc1CN1CCC(F)(F)C1 [Example 393, [7-(3,5-Difluoro-4-morpholin-4-ylmethyl-phenyl)-7H-pyrrolo[2,3-d]pyrimidin-2-yl]-[3-(3,3-difluoro-pyrrolidin-1-ylmethyl)-4-methyl-phenyl]-amine] |
| 110 nM | 101 nM | Cc1ccc(Nc2ncc3ccn(-c4ccc(C(=O)N5CCOCC5)c(F)c4)c3n2)cc1CN1CCNC(C)(C)C1 [Example 386, (4-{2-[3-(3,3-Dimethyl-piperazin-1-ylmethyl)-4-methyl-phenylamino]-pyrrolo[2,3-d]pyrimidin-7-yl}-2-fluoro-phenyl)-morpholin-4-yl-methanone] |
| 6.4 nM | 119 nM | COCCOc1ccc(Nc2ncc3ccn(-c4cc(F)c(CN5CCOCC5)c(F)c4)c3n2)cn1 [Example 516, [7-(3,5-Difluoro-4-morpholin-4-ylmethyl-phenyl)-7H-pyrrolo[2,3-d]pyrimidin-2-yl]-[6-(2-methoxy-ethoxy)-pyridin-3-yl]-amine] |
| 3.6 nM | 60.5 nM | Fc1cc(-n2ccc3cnc(Nc4ccc(OC5CCNC5)nc4)nc32)cc(F)c1CN1CCOCC1 (racemic) [Example 519, [7-(3,5-Difluoro-4-morpholin-4-ylmethyl-phenyl)-7H-pyrrolo[2,3-d]pyrimidin-2-yl]-[6-(pyrrolidin-3-yloxy)-pyridin-3-yl]-amine] |
| ≤ 3 nM | 97.2 nM | C[C@@H]1CN(c2ncc(Nc3ncc4ccn(-c5cc(F)c(CN6CCOCC6)c(F)c5)c4n3)cc2C(F)(F)F)C[C@H](C)N1 [Example 496, [7-(3,5-Difluoro-4-morpholin-4-ylmethyl-phenyl)-7H-pyrrolo[2,3-d]pyrimidin-2-yl]-[6-(cis-3,5-dimethyl-piperazin-1-yl)-5-trifluoromethyl-pyridin-3-yl]-amine] |
| ≤ 3 nM | 3.9 nM | Fc1cc(-n2ccc3cnc(Nc4ccc([C@H]5COCCN5)cc4)nc32)cc(F)c1CN1CCOCC1 [Example 511, [7-(3,5-Difluoro-4-morpholin-4-ylmethyl-phenyl)-7H-pyrrolo[2,3-d]pyrimidin-2-yl]-((S)-4-morpholin-3-yl-phenyl)-amine] |
| ≤ 3 nM | 31.5 nM | Cc1ccc(Nc2ncc3ccn(-c4cc(F)c(CN5CCOCC5)c(F)c4)c3n2)cc1CN1CCC(N(C)C)C1 (racemic) [Example 434, [7-(3,5-Difluoro-4-morpholin-4-ylmethyl-phenyl)-7H-pyrrolo[2,3-d]pyrimidin-2-yl]-[3-(3-dimethylamino-pyrrolidin-1-ylmethyl)-4-methyl-phenyl]-amine] |
